From patent publication US9351974B2, “Substituted pteridinones for the treatment of cancer” (OSI Pharmaceuticals, LLC, priority 2011, dated 2016)

Each molecule was assayed against T1, His-tagged full-length RSK2 (RPS6KA3) (Homo sapiens, UniProt P51812) (assay: RSK2 Omnia Assay for compound IC50 determination). Settings: ATP 15 μM, n=2, read-out: Mean RSK2 Biochem IC50.
T1 construct: His-tagged full-length RSK2 (RPS6KA3, Invitrogen PV3323); His; purchased Invitrogen PV3323
Type: biochemical
How it was run: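 Continuous fluorescence assay (ex 360/em 485 nm) of SOX-peptide (Omnia ST Peptide 6, 5 μM) phosphorylation with ATP 15 μM (Km 16.3 μM). Enzyme was […], in pH 7.5 HEPES/MgCl2 buffer with 1% DMSO. IC50 came from 11-point threefold dilutions ([…]) by four-parameter fit of initial slopes, in duplicate; Ki by Cheng-Prusoff assuming competitive inhibition.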

T1 sequence (P51812 whole entry): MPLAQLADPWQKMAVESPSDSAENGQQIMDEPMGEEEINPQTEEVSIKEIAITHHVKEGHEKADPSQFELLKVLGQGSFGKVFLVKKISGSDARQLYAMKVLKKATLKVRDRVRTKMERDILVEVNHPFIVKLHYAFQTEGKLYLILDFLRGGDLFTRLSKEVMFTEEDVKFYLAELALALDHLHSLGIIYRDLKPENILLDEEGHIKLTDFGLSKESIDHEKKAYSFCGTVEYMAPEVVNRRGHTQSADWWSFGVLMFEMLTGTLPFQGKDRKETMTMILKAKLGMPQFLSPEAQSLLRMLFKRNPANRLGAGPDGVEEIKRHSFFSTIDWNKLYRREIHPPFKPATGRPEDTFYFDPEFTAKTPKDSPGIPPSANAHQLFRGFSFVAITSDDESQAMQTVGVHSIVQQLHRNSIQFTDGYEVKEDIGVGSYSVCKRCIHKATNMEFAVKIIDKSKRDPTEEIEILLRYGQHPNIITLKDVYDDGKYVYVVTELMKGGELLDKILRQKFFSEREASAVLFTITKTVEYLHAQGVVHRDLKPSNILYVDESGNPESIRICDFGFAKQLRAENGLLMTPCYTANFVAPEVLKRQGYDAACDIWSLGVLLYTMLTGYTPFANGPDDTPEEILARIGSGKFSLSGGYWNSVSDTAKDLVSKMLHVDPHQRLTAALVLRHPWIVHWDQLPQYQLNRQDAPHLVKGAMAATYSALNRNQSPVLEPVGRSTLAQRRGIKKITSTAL

IC50 [nM] | SMILES
≤ 100 | C[C@@H]1C(=O)N(c2cccc(S(C)(=O)=O)c2)c2cnc(Nc3ccc4[nH]ncc4c3)nc2N1C1CCCCC1 [Example 43, (7R)-8-cyclohexyl-2-(1H-indazol-5-ylamino)-7-methyl-5-[3-(methylsulfonyl)phenyl]-7,8-dihydropteridin-6(5H)-one]
100 to 1000 | Cc1n[nH]c2ccc(Nc3ncc4c(n3)N(C3CCCCC3)[C@H](C)C(=O)N4c3cccc(C#N)c3)cc12 [compound 103, 3-[(7R)-8-cyclohexyl-7-methyl-2-[(3-methyl-1H-indazol-5-yl)amino]-6-oxo-7,8-dihydropteridin-5(6H)-yl]benzonitrile]
≤ 100 | C[C@@H]1C(=O)N(c2ccccc2)c2cnc(Nc3ccc4[nH]ncc4c3)nc2N1C1CCCCC1 [Example 18, (7R)-8-cyclohexyl-2-(1H-indazol-5-ylamino)-7-methyl-5-phenyl-7,8-dihydropteridin-6(5H)-one]
≤ 100 | C[C@@H]1C(=O)N(c2ccccc2)c2cnc(Nc3ccc4[nH]ncc4c3)nc2N1Cc1ccccc1 [Example 76, (7R)-8-benzyl-2-(1H-indazol-5-ylamino)-7-methyl-5-phenyl-7,8-dihydropteridin-6(5H)-one]
≤ 100 | C[C@@H]1C(=O)N(c2ccc(C#N)cc2)c2cnc(Nc3ccc4[nH]ncc4c3)nc2N1C1CCCCC1 [Example 19, 4-[(7R)-8-cyclohexyl-2-(1H-indazol-5-ylamino)-7-methyl-6-oxo-7,8-dihydropteridin-5(6H)-yl]benzonitrile]
≤ 100 | C[C@@H]1C(=O)N(c2ccc(C(=O)O)cc2)c2cnc(Nc3ccc4[nH]ncc4c3)nc2N1C1CCCCC1 [Example 63, 4-[(7R)-8-cyclohexyl-2-(1 H-indazol-5-ylamino)-7-methyl-6-oxo-7,8-dihydropteridin-5(6H)-yl]benzoic acid]
≤ 100 | COc1ccc(N2C(=O)[C@@H](C)N([C@H]3CC[C@@H](OC)CC3)c3nc(Nc4cc(F)c5[nH]ncc5c4)ncc32)cc1OC [compound 226, (7R)-5-(3,4-dimethoxyphenyl)-2-[(7-fluoro-1H-indazol-5-yl)amino]-8-(cis-4-methoxycyclohexyl)-7-methyl-7,8-dihydropteridin-6(5H)-one]
≤ 100 | COc1ccc(N2C(=O)[C@@H](C)N(C3CCOCC3)c3nc(Nc4cc(F)c5[nH]ncc5c4)ncc32)cc1OC [compound 188, (7R)-5-(3,4-dimethoxyphenyl)-2-[(7-fluoro-1H-indazol-5-yl)amino]-7-methyl-8-(tetrahydro-2H-pyran-4-yl)-7,8-dihydropteridin-6(5H)-one]
≤ 100 | COc1ccc(N2C(=O)[C@@H](C)N([C@H]3CC[C@H](C)CC3)c3nc(Nc4cnc5[nH]ncc5c4)ncc32)cc1C#N [compound 245, 2-Methoxy-5-[(7R)-7-methyl-8-(trans-4-methylcyclohexyl)-6-oxo-2-(1H-pyrazolo[3,4-b]pyridin-5-ylamino)-7,8-dihydropteridin-5(6H)-yl]benzonitrile]
> 1000 | C[C@@H]1C(=O)N(c2ccccc2)c2cnc(Nc3ccc4[nH]ncc4c3)nc2N1CC1CCNCC1 [Example 78, (7R)-2-(1H-indazol-5-ylamino)-7-methyl-5-phenyl-8-(piperidin-4-ylmethyl)-7,8-dihydropteridin-6(5H)-one]
≤ 100 | C[C@@H]1C(=O)N(c2ccncc2)c2cnc(Nc3ccc4[nH]ncc4c3)nc2N1C1CCCCC1 [Example 20, (7R)-8-cyclohexyl-2-(1H-indazol-5-ylamino)-7-methyl-5-(pyridin-4-yl)-7,8-dihydropteridin-6(5H)-one]

SMILES | IC50 [nM]
CCOP(=O)(Cc1ccc(Nc2ncc3c(n2)N(CCC(C)C)C(C)C(=O)N3c2ccccc2)cc1)OCC (stereo not drawn) [Example 4, diethyl (4-{[7-methyl-8-(3-methylbutyl)-6-oxo-5-phenyl-5,6,7,8-tetrahydropteridin-2-yl]amino}benzyl)phosphonate] | > 1000
